For the assay, the system named is Scenedesmus cavuolatus (CS, Chlorella fusca). Put plainly: Determination of the resistance to colonization by algae (render coat on paper, media for algae). It is filed as cell-based. The note with it: +0.25% benzalkonium chloride, 50% strength, 5 month storage. As for the experimental part: The unfinished material (commercially available render, pH 11.5) is treated, in separate batches, with different concentrations of the preservative A according to the invention.
The test was carried out once after the samples had been prepared and then after storage in wet render for 3 months or 5 months.
Laboratory method for determining the resistance of facade coats to colonization by algae. In this method, facade coats on standardized paper are used as the test substrate, and Scenedesmus cavuolatus (CS, Chlorella fusca) as the test alga.
The experiments are carried out in Petri dishes on media for algae.
1000 g of the material to be finished were, in separate batches, mixed with various concentrations of the test microbicide and homogenized using a suitable stirrer.
Paper supports (Schleicher & Schüll No. 2589 B/X 24078) 90×270 mm in size are coated with the test material. The paint or render samples are applied as a coat to wet-layer thickness of 250 μm, using a knife. The knife must have an opening of at least 6.5 cm in width. In the case of renders, the layer thickness depends on the particle size, as is the case under practice conditions. The coated supports, hereinbelow referred to as test specimens, are subsequently dried for 5 days in a horizontal position. […]
The colonization of the samples with algae is examined and evaluated after 2 weeks. […]

Regarding “benzalkonium chloride [benzalkonium chloride, 50% strength]”, the “Inhibitory zone in mm” value is on record as more than 18 mm (first group of rows (leaching not given, presumably none)) and more than 18 mm (second group of rows (leaching not given, presumably 72 h)).

For the origin of these results see patent publication US20070093538A1, “Preparation for the fungicidal and algicidal finish of alkaline coating compositions” (priority 2005, published 2007).
